Test system: Collagen-induced arthritis (CIA)
Test: Rat collagen induced arthritis, combination dosing with Methotrexate
Assay type: in vivo
Protocol: Immunization and Challenge: Female Lewis rats were immunized on day 0 and challenged on day 7 with cII from bovine nasal mixed with Freund's incomplete adjuvant at a final collagen concentration of 1.0 mg/ml. The animals were injected at the base of the tail with 400 μg of cII. Combination Dosing Regimen: Rats were dosed with the compound of Formula I (3.0 and 10 mg/kg, p.o., bi.d.) or Methotrexate (MTX, 0.1 and 0.2 mg/kg, p.o., q.d.) as monotherapy or in combinations consisting of each dose of the compound of Formula I with each dose of MTX starting on day 6 and continuing through day 21. Joint Pathology Ankle joint swelling was measured to the nearest 0.01 mm by using electronic digital calipers. Measurements were recorded 7 times throughout the study starting on day 6 and ending on day 21. Body weights were recorded on the same days. On day 21, hind paws were removed at the hairline just above the ankle and fixed in 10% neutral buffered formalin. MicroCT analysis: Ankle joints were examined using a cone-beam μCT scanner. A scout view scan was obtained first for selection of the examination volume of the specimens, followed by positioning, measurement and computational reconstruction. In ankle joints, the ratio of bone surface to bone volume, describing the complexity of bone surface in a certain volume, was analyzed. Statistical Analysis For joint swelling/inflammation, data were analyzed using Everstat v.5 software and a 2-way repeated measure ANOVA with Dunnett's post test. MicroCT data were analyzed by Everstat using a 1-way ANOVA and Newman-Keuls multiple comparison test.

CN(Cc1cnc2nc(N)nc(N)c2n1)c1ccc(C(=O)N[C@@H](CCC(=O)O)C(=O)O)cc1 [MTX, Methotrexate, reference compound]
bone erosion, MicroCT (MTX 0.1 mg/kg monotherapy): effect was not seen | bone erosion, MicroCT (MTX 0.2 mg/kg po qd monotherapy): significant decrease in bone erosion

Reference: patent US8658649B2, “Kinase inhibitor” (Sanofi, priority 2006, dated 2014)
